# Results as given in patent US9266933B2, “Polypeptides inhibiting neovascularization and uses thereof” (SHANGHAI FIRST PEOPLE'S HOSPITAL, priority 2011, dated 2016).
# Entries after “also recorded” stand apart in the source; their conditions may differ.
# Tests used:
# [1] = system: Human Umbilical Vein Endothelial Cells (HUVECs); experiment: Matrigel lumen formation assay of HUVECs; type: cell-based; conditions: VEGF + ZY3 in different concentrations (incl. 160 μM), 6 hours, compared with VEGF group; concentration-dependent; *P<0.05
# Experimental: The Matrigel method was used as follows:
# A 50 μl/well Matrigel (purchased from BD Co.) was added into a 96-well plate, and then the plate was incubated at 37° C. for 30 min. Upon solidification, the primary HUVECs were inoculated onto the surface of Matrigel with an inoculation concentration of 8×10^6/ml. Then the serum-free culture medium ECM as negative control, VEGF (100 ng/ml) (purchased from Sigma Co.) as positive control, VEGF (100 ng/well)+small peptide ZY3 in different concentrations as treatment groups were added in each well. The plate wad incubated at 37° C. After treating for 6 hours, photos were taken for cells in 3 randomized fields in the plate under the microscope (×200 fold.), and the sum of the maximum lumina diameter formed in the cells was calculated. Finally, SPSS11.0.1 was used for statistical analysis.
# [2] = system: chick embryo chorioallantoic membrane; experiment: Angiogenesis in chick embryo chorioallantoic membrane model; type: in vivo; conditions: low (10 μg/piece) and high (50 μg/piece) concentration on filter paper, 2 days, compared with PBS group; **P<0.01
# Experimental: Model of chick embryo chorioallantoic membrane was used and the methods were as follows:
# Upon sterilization, the chick fertile eggs of 1-2 days old (purchased from 36 Lianhuaqing Chicken Farm of Shanghai Xinghuo Farm) were placed into a thermhygrostat (purchased from Shanghai Boxun industrial Co., ltd. SPX-250C) (T=37° C., Humidity H=60-70%) to incubate for 5 days. Every day, the eggs were overturned for one time at morning and night. Onto the filter paper (Whatman quantitative filter papers, Sigma, ashless, Grade 42, Cat No 1442-042, 42.5 mm Φ×100 circles) containing cortisone acetate (5 μg/μl, 5 μl/piece), PBS (5 μl/piece), low (2 μg/μl) or high (10 μg/μl) concentration of small peptides ZY3 (5 μl/piece) were dropped respectively. After air-dried, the filter paper was placed between the major vessels on chorioallantoic membrane of fertile eggs and the eggs were sealed. The eggs were placed in the thermhygrostat (T=37° C., Humidity H=60-70%) to incubate for another 2 days (24 hours a day) without overturning. Then the chorioallantoic membrane was thoroughly exposed and photographed (the range was within 5 mm around the filter paper). The number of 3-5 subordinate microvessels in the area within 2.5 mm around the filter paper was counted. SPSS11.0.1 was used for statistical analysis.
# mouse cornea = experiment: Mouse corneal stroma micropocket model of VEGF-induced pathological angiogenesis; type: in vivo, C57BL/6 mice; conditions: VEGF + ZY3 low (0.5 μg/granule) and high (2 μg/granule) concentration, 5 days after operation, compared with VEGF group; **P<0.01
# Experimental: Mice model of the corneal stroma micropocket was used and the methods were as follows:
# Male C57BL/6 mice (4-5 week old) were intraperitoneally injected with 2% pentobarbital (about 0.1 ml/mouse) for anesthesia. 4% hydrochloric oxybuprocaine ophthalmic solution was locally administrated. Under the stereo microscope, OT syringe needle and 2 ml syringe needle were used to perform a blunt dissection between the layers of corneal stroma at 0.8-1 mm from corneoscleral limbus. A pouch of about 0.6×0.8 mm was formed. […] Neovascularization area were calculated as followed: Area (mm^2)=0.5*3.14*VL (mm)*CN*0.4 (mm) SPSS1L 0.1 was used for statistical analysis.
# [3] = system: Human Umbilical Vein Endothelial Cells (HUVECs); experiment: MTS proliferation assay of VEGF-stimulated HUVECs; type: cell-based; conditions: VEGF + ZY3 in different concentrations, 24-hour incubation, compared with VEGF group; concentration-dependent; *P<0.05, **P<0.01
# Experimental: The MTS method was used as follows:
# Primary Human Umbilical Vein Endothelial Cells (HUVECs) (purchased from ScienCell Co.) were inoculated into a 96-well plate with an inoculation concentration of 2×10^4/ml. After cells had adhered to the wall, serum-free culture medium ECM was added and the cells were cultivated at 37° C. for 24 hours. Then the serum-free culture medium ECM as negative control, VEGF (100 ng/ml) (purchased from Sigma Co.) as positive control, VEGF (100 ng/well)+small peptide ZY3 in different concentrations as treatment groups were added in each well. After a 24-hour incubation, 20 μl 1 MTS solution (purchased from Promega Corporation) was added in each well. After incubation at 37° C. for 4 hours, the absorbance in each well was measured at 490 nm by using microplate reader (Bio-Rad Co.). The proliferation activity of cells was determined according to OD490. Finally, SPSS11.0.1 was used for statistical analysis.
# Derived Polypeptides were prepared as follows, and the inhibition effect of each ZY3 derived polypeptides on proliferation of Human Umbilical Vein Endothelial Cells HUVECs was determined according to the methods in Example 3.
sequence,measurement,setting,value
TANVTMQLLKIRSGDRPSYVELTFSQH (angiogenesis-inhibiting peptide ZY3),lumen formation of HUVECs (sum of maximum lumina diameter),[1],significantly inhibited
same,angiogenesis of chick embryo chorioallantoic membrane (count of 3-5 subordinate microvessels within 2.5 mm around the filter paper),[2],significant inhabitation effects; also recorded: significantly inhibited
same,corneal angiogenesis (neovascularization area on mouse cornea),mouse cornea,significantly inhibited
same,"proliferation of HUVECs (OD490, MTS)",[3],significantly inhibited
